# Measurements published in patent US20260207578A1, “COMPOUND BASED ON SULFUR/OXYGEN SUBSTITUTED GLUTARIMIDE-BASED ISOINDOLINONE SKELETON AND USE THEREOF” (Gluetacs Therapeutics (Shanghai) Co., LTD., priority 2022, published 2026).
# Key:
# [1] = target: T1, human Cereblon WT GST-tagged protein (Homo sapiens, UniProt Q96SW2); test: CRBN-binding affinity, HTRF (CEREBLON BINDING kit); details: displacement of Thalidomide-Re reagent, 3 hours at room temperature
# T1 construct: purchased CISBIO 64BDCRBNPEH
# T1 sequence (Q96SW2 whole entry): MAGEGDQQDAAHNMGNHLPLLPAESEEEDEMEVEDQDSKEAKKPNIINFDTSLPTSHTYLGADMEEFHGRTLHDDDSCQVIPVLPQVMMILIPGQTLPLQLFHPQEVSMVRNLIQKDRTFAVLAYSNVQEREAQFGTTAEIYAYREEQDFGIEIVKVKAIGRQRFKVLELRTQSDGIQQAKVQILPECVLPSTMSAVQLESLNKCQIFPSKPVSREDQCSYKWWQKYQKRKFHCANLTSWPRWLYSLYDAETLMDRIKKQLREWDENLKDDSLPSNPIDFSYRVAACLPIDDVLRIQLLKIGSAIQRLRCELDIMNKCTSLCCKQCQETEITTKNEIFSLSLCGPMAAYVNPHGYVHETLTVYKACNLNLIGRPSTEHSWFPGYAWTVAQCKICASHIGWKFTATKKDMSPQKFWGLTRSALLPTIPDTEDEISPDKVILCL
# Method in brief: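 HTRF competition format: compound, GST-tagged wild-type human Cereblon, Thalidomide-Re tracer and GST Eu antibody were combined in PROTAC binding buffer. Binding was derived from emission at 620 nm relative to blank and solvent control wells.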
# [2] = target: T2, IKZF3 (Homo sapiens, UniProt Q96SW2+Q9UKT9); test: Western-blot assay, substrate protein in hPBMCs; format: cell-based; details: hPBMC cells, 24 hours, tested at 50 nM and 500 nM, table does not say which
# T2 construct: endogenous in cells; host or cells: human PBMCs (Milecell Biotechnologies)
# Method in brief: (§1)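 hPBMCs (1×10^6 cells/mL) exposed 24 h to compound at 50 nM and 500 nM, lysed, and probed by Western blot. Band grayscale normalized to internal control gives % protein remaining versus DMSO; DC50 from concentration-response fit at half DMSO band intensity.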
# [3] = target: T3, IKZF1 (Homo sapiens, UniProt Q13422+Q96SW2); test: Western-blot assay, substrate protein in hPBMCs; format: cell-based; details: hPBMC cells, 24 hours, tested at 50 nM and 500 nM, table does not say which
# T3 construct: endogenous in cells; host or cells: human PBMCs (Milecell Biotechnologies)
# T3 sequence (Q13422 whole entry): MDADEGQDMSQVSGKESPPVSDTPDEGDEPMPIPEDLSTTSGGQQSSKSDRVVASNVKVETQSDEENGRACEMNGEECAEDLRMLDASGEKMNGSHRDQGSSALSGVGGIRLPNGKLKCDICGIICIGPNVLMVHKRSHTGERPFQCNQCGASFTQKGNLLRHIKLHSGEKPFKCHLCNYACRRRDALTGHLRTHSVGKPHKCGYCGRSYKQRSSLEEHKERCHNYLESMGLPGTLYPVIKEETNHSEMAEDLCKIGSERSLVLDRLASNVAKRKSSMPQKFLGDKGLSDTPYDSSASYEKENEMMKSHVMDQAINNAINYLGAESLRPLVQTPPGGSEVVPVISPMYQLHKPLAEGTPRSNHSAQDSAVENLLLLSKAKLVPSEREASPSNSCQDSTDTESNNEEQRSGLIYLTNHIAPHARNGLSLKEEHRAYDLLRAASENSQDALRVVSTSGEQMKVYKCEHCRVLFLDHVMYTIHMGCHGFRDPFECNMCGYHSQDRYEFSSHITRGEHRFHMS
# T3 sequence (Q96SW2 whole entry): as the sequence (Q96SW2 whole entry) above
# T3 sequence (Q16531 whole entry partner): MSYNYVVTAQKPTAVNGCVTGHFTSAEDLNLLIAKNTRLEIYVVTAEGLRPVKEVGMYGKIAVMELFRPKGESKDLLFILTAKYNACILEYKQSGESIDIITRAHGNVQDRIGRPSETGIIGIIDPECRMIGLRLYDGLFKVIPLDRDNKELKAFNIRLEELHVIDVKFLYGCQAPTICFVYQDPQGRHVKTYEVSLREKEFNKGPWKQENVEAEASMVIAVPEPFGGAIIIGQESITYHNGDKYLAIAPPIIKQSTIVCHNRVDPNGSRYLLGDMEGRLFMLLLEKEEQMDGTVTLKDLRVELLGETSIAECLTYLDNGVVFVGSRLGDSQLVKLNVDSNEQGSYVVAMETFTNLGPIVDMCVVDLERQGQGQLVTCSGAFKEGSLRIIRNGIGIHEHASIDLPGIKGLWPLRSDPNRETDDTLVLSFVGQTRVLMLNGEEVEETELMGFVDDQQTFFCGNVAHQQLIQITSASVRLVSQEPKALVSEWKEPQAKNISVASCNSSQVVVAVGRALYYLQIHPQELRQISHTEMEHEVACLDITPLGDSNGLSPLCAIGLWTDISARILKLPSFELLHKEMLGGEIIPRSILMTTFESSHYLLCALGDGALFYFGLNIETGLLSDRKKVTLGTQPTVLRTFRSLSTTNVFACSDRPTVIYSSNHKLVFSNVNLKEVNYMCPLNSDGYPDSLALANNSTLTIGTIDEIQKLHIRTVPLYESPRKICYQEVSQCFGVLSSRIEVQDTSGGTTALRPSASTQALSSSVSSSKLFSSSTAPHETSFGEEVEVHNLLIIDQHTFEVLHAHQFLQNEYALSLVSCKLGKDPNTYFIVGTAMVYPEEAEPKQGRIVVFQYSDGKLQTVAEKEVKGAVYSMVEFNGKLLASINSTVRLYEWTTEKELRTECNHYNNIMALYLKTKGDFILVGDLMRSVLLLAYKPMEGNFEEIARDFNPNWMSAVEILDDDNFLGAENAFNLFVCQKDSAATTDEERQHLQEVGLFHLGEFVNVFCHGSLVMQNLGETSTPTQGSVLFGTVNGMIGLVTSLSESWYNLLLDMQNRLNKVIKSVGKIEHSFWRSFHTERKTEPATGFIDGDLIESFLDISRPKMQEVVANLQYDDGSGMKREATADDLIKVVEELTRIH
# Method in brief: as §1
# [4] = target: T4, IKZF2 (Homo sapiens, UniProt Q96SW2+Q9UKS7); test: Western-blot assay, substrate protein in hPBMCs; format: cell-based; details: hPBMC cells, 24 hours, tested at 50 nM and 500 nM, table does not say which
# T4 construct: endogenous in cells; host or cells: human PBMCs (Milecell Biotechnologies)
# T4 sequence (Q9UKS7 whole entry): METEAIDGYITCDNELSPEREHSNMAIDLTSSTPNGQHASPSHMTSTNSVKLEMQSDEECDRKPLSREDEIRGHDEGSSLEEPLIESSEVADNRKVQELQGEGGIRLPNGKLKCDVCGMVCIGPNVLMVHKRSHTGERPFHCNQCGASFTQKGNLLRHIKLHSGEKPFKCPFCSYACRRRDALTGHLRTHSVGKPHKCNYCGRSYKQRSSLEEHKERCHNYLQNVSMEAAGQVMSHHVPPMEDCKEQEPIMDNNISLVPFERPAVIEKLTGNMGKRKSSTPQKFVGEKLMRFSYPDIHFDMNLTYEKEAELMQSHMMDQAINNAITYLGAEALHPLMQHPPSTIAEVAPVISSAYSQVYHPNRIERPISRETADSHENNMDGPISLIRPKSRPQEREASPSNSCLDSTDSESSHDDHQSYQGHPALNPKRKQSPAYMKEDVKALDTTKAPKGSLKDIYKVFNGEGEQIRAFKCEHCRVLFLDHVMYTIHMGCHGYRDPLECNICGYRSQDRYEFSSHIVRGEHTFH
# T4 sequence (Q96SW2 whole entry): as the sequence (Q96SW2 whole entry) above
# T4 sequence (Q16531 whole entry partner): as the sequence (Q16531 whole entry partner) above
# Method in brief: (§2)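 Steps: treat hPBMCs 24 h; lyse on ice in RIPA with phosphatase inhibitors; quantify protein by BCA; denature at 95 °C and blot. Remaining protein (%) is the target/internal-control band ratio, normalised; degradation rate is its complement.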
# [5] = target: T5, Wee1 (Homo sapiens, UniProt P30291+Q96SW2); test: Western-blot assay, substrate protein in hPBMCs; format: cell-based; details: hPBMC cells, 24 hours, tested at 50 nM and 500 nM, table does not say which
# T5 construct: endogenous in cells; host or cells: human PBMCs (Milecell Biotechnologies)
# T5 sequence (P30291 whole entry): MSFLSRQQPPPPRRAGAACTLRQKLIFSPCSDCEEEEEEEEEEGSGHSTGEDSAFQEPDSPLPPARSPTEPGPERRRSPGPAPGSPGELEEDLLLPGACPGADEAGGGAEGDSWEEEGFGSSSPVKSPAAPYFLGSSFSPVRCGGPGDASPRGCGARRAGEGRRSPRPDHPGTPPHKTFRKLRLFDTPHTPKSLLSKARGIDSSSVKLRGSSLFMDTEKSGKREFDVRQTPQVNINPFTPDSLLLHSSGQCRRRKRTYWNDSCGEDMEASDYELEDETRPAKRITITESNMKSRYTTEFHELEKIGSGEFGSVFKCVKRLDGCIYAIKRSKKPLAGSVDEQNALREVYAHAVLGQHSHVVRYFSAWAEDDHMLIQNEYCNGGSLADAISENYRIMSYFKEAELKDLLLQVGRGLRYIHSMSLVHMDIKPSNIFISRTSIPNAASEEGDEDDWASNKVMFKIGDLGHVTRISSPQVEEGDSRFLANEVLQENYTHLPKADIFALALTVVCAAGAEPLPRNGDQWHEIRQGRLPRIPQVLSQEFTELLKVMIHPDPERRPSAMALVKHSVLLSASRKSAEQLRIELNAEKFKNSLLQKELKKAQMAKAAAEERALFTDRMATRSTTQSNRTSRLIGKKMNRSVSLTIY
# T5 sequence (Q96SW2 whole entry): as the sequence (Q96SW2 whole entry) above
# T5 sequence (Q16531 whole entry partner): as the sequence (Q16531 whole entry partner) above
# Method in brief: as §2
# [6] = target: T6, GSPT1 (Homo sapiens, UniProt P15170+Q96SW2); test: Western-blot assay, substrate protein in hPBMCs; format: cell-based; details: hPBMC cells, 24 hours, tested at 50 nM and 500 nM, table does not say which
# T6 construct: endogenous in cells; host or cells: human PBMCs (Milecell Biotechnologies)
# T6 sequence (P15170 whole entry): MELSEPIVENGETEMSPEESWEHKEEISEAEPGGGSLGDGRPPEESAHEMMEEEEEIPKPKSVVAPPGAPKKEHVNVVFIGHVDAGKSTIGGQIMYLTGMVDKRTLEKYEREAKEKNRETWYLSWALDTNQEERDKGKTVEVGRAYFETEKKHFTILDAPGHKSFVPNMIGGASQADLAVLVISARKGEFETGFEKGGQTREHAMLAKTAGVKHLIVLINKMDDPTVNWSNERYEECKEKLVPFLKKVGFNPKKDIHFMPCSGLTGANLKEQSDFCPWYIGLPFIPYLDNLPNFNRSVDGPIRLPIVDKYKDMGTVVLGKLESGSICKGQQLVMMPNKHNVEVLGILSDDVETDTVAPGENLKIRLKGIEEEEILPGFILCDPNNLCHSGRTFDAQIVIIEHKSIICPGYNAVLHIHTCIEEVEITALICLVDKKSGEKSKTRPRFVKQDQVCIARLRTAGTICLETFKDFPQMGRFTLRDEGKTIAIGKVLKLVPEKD
# T6 sequence (Q96SW2 whole entry): as the sequence (Q96SW2 whole entry) above
# T6 sequence (Q16531 whole entry partner): as the sequence (Q16531 whole entry partner) above
# Method in brief: as §2
# [7] = target: T7, CK1α (Homo sapiens, UniProt P48729+Q96SW2); test: Western-blot assay, substrate protein in hPBMCs; format: cell-based; details: hPBMC cells, 24 hours, tested at 50 nM and 500 nM, table does not say which
# T7 construct: endogenous in cells; host or cells: human PBMCs (Milecell Biotechnologies)
# T7 sequence (P48729 whole entry): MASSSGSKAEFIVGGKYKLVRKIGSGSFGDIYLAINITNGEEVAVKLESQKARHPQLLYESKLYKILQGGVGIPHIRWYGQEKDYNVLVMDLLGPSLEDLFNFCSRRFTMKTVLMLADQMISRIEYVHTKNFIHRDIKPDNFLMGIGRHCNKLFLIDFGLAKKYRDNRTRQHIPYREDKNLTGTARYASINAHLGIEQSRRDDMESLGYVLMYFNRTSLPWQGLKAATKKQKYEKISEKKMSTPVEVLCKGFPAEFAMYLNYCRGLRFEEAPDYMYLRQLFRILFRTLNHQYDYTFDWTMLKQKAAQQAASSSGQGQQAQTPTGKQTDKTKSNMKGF
# T7 sequence (Q96SW2 whole entry): as the sequence (Q96SW2 whole entry) above
# T7 sequence (Q16531 whole entry partner): as the sequence (Q16531 whole entry partner) above
# Method in brief: as §2
# [8] = system: MV-4-11; test: Half inhibitory concentration (IC50) against tumor cells, Cell Counting Kit-8; format: cell-based; details: Homo sapiens, MV4-11, CCK-8, 96 h treatment, read-out: inhibitory activity (IC50, nM) against tumor cells proliferation
# Protocol: The tumor cells used herein were cultured in a cell culture medium listed in table A at 37° C. in an incubator with 5% CO2.
# After the cells were treated with the compounds of the present disclosure for a period of time, the cell viability detection reagent was added to the culture medium for cell viability assessment according to the instructions provided with the CCK-8 kit. […] The growth inhibition of the compounds of the present disclosure on cells was plotted by Prism Graphpad software, and the IC50 values of the compounds of the present disclosure were calculated therefrom.
IC50 [1],IC50 [8],Structure (SMILES),substrate protein remaining % [2],substrate protein remaining % [3],substrate protein remaining % [4],substrate protein remaining % [5],substrate protein remaining % [6],substrate protein remaining % [7]
1000 to 1900 nM,,"CC1(C)CCC(CN2CCC3(CC2)CC(Oc2ccc4c(c2)CN(C2CCC(=O)NC2=O)C4=O)C3)=C(c2ccc(Cl)cc2)C1 (centres unmarked) [GT-06933, 3-(5-((7-((4′-chloro-5,5-dimethyl-3,4,5,6-tetrahydro-[1,1′-biphenyl]-2-yl)methyl)-7-azaspiro[3.5]nonan-2-yl)oxy)-1-oxoisoindolin-2-yl)piperidine-2,6-dione]",A (0%≤ substrate protein remaining % ≤80%),A (0%≤ substrate protein remaining % ≤80%),A (0%≤ substrate protein remaining % ≤80%),A (0%≤ substrate protein remaining % ≤80%),,
500 to 1000 nM,,"CC1(C)CCC(CN2CC(Oc3ccc4c(c3)CN(C3CCC(=O)NC3=O)C4=O)C2)=C(c2ccc(F)cc2)C1 (centres unmarked) [GT-03459, 3-(5-((1-((4′-fluoro-5,5-dimethyl-3,4,5,6-tetrahydro-[1,1′-biphenyl]-2-yl)methyl)azetidin-3-yl)oxy)-1-oxoisoindolin-2-yl)piperidine-2,6-dione]",A (0%≤ substrate protein remaining % ≤80%),A (0%≤ substrate protein remaining % ≤80%),A (0%≤ substrate protein remaining % ≤80%),A (0%≤ substrate protein remaining % ≤80%),A (0%≤ substrate protein remaining % ≤80%),A (0%≤ substrate protein remaining % ≤80%)
500 to 1000 nM,,"CC1(C)CC(c2ccc(Cl)cc2)=C(CN2CC(Sc3ccc4c(c3)CN(C3CCC(=O)NC3=O)C4=O)C2)CO1 (centres unmarked) [GT-06514, 3-(5-((1-((4-(4-chlorophenyl)-6,6-dimethyl-5,6-dihydro-2H-pyran-3-yl)methyl)azetidin-3-yl)thio)-1-oxoisoindolin-2-yl)piperidine-2,6-dione]",A (0%≤ substrate protein remaining % ≤80%),A (0%≤ substrate protein remaining % ≤80%),A (0%≤ substrate protein remaining % ≤80%),A (0%≤ substrate protein remaining % ≤80%),A (0%≤ substrate protein remaining % ≤80%),
< 500 nM,,"O=C1CCC(N2Cc3cc(SC4CN(C(c5ccccn5)c5ccccn5)C4)ccc3C2=O)C(=O)N1 (centres unmarked) [GT-06811, 3-(5-((1-(di(pyridin-2-yl)methyl)azetidin-3-yl)thio)-1-oxoisoindolin-2-yl)piperidine-2,6-dione]",A (0%≤ substrate protein remaining % ≤80%),A (0%≤ substrate protein remaining % ≤80%),A (0%≤ substrate protein remaining % ≤80%),A (0%≤ substrate protein remaining % ≤80%),A (0%≤ substrate protein remaining % ≤80%),
< 500 nM,,"CC1(C)CCC(CN2CC(Sc3ccc4c(c3)CN(C3CCC(=O)NC3=O)C4=O)C2)=C(c2ccc(F)cc2)C1 (centres unmarked) [GT-03457, 3-(5-((1-((4′-fluoro-5,5-dimethyl-3,4,5,6-tetrahydro-[1,1′-biphenyl]-2-yl)methyl)azetidin-3-yl)thio)-1-oxoisoindolin-2-yl)piperidine-2,6-dione]",A (0%≤ substrate protein remaining % ≤80%),A (0%≤ substrate protein remaining % ≤80%),A (0%≤ substrate protein remaining % ≤80%),,A (0%≤ substrate protein remaining % ≤80%),A (0%≤ substrate protein remaining % ≤80%)
500 to 1000 nM,,"O=C1CCC(N2Cc3cc(OC4CN(Cc5ccc(-c6ccncc6)nc5)C4)ccc3C2=O)C(=O)N1 (centres unmarked) [GT-06809, 3-(5-((1-([2,4′-bipyridin]-5-ylmethyl)azetidin-3-yl)oxy)-1-oxoisoindolin-2-yl)piperidine-2,6-dione]",A (0%≤ substrate protein remaining % ≤80%),A (0%≤ substrate protein remaining % ≤80%),A (0%≤ substrate protein remaining % ≤80%),A (0%≤ substrate protein remaining % ≤80%),A (0%≤ substrate protein remaining % ≤80%),A (0%≤ substrate protein remaining % ≤80%)
1000 to 1900 nM,,"O=C1CCC(N2Cc3cc(OC4CCNCC4)ccc3C2=O)C(=O)N1 (centres unmarked) [GT-03612, 3-(1-oxo-5-(piperidin-4-yloxy)isoindolin-2-yl)piperidine-2,6-dione]",A (0%≤ substrate protein remaining % ≤80%),A (0%≤ substrate protein remaining % ≤80%),A (0%≤ substrate protein remaining % ≤80%),A (0%≤ substrate protein remaining % ≤80%),A (0%≤ substrate protein remaining % ≤80%),A (0%≤ substrate protein remaining % ≤80%)
1000 to 1900 nM,500 to 1000 nM,"CC1(C)CCC(C(=O)N2CCC3(CCC(Sc4ccc5c(c4)CN(C4CCC(=O)NC4=O)C5=O)CC3)CC2)=C(c2ccc(Cl)cc2)C1 (centres unmarked) [GT-07016, 3-(5-((3-(4′-chloro-5,5-dimethyl-3,4,5,6-tetrahydro-[1,1′-biphenyl]-2-carbonyl)-3-azaspiro[5.5]undecan-9-yl)thio)-1-oxoisoindolin-2-yl)piperidine-2,6-dione]",,,,,,
< 500 nM,,"O=C1CCC(N2Cc3cc(SC4CN(Cc5cnc(-c6ccccc6)cn5)C4)ccc3C2=O)C(=O)N1 (centres unmarked) [GT-06350, 3-(1-oxo-5-((1-((5-phenylpyrazin-2-yl)methyl)azetidin-3-yl)thio)isoindolin-2-yl)piperidine-2,6-dione]",A (0%≤ substrate protein remaining % ≤80%),A (0%≤ substrate protein remaining % ≤80%),A (0%≤ substrate protein remaining % ≤80%),,A (0%≤ substrate protein remaining % ≤80%),A (0%≤ substrate protein remaining % ≤80%)
500 to 1000 nM,,"O=C1CCC(N2Cc3cc(OC4CN(CC5=C(c6ccc(F)cc6)CCCC5)C4)ccc3C2=O)C(=O)N1 (centres unmarked) [GT-06302, 3-(5-((1-((4′-fluoro-3,4,5,6-tetrahydro-[1,1′-biphenyl]-2-yl)methyl)azetidin-3-yl)oxy)-1-oxoisoindolin-2-yl)piperidine-2,6-dione]",A (0%≤ substrate protein remaining % ≤80%),A (0%≤ substrate protein remaining % ≤80%),A (0%≤ substrate protein remaining % ≤80%),A (0%≤ substrate protein remaining % ≤80%),A (0%≤ substrate protein remaining % ≤80%),A (0%≤ substrate protein remaining % ≤80%)
< 500 nM,,"O=C1CCC(N2Cc3cc(SC4CN(CC5=C(c6ccc(Cl)cc6)CCOC5)C4)ccc3C2=O)C(=O)N1 (centres unmarked) [GT-06351, 3-(5-((1-((4-(4-chlorophenyl)-5,6-dihydro-2H-pyran-3-yl)methyl)azetidin-3-yl)thio)-1-oxoisoindolin-2-yl)piperidine-2,6-dione]",A (0%≤ substrate protein remaining % ≤80%),A (0%≤ substrate protein remaining % ≤80%),A (0%≤ substrate protein remaining % ≤80%),,A (0%≤ substrate protein remaining % ≤80%),A (0%≤ substrate protein remaining % ≤80%)
500 to 1000 nM,,"O=C1CCC(N2Cc3cc(SC4CN(C(c5cccc(F)c5)c5cccc(F)c5)C4)ccc3C2=O)C(=O)N1 (centres unmarked) [GT-06349, 3-(5-((1-(bis(3-fluorophenyl)methyl)azetidin-3-yl)thio)-1-oxoisoindolin-2-yl)piperidine-2,6-dione]",A (0%≤ substrate protein remaining % ≤80%),A (0%≤ substrate protein remaining % ≤80%),A (0%≤ substrate protein remaining % ≤80%),,A (0%≤ substrate protein remaining % ≤80%),A (0%≤ substrate protein remaining % ≤80%)
< 500 nM,500 to 1000 nM,"O=C1CCC(N2Cc3cc(SC4CCCN(C(c5ccccc5)c5ccccc5)CC4)ccc3C2=O)C(=O)N1 (centres unmarked) [GT-06645, 3-(5-((1-benzhydrylazepan-4-yl)thio)-1-oxoisoindolin-2-yl)piperidine-2,6-dione]",,,,,A (0%≤ substrate protein remaining % ≤80%),
